The source of these data is patent US9388180B2, “Inhibitor compounds of phosphodiesterase type 10A” (priority 2012, dated 2016).

Data set [1] is described as follows: Microsomal half-life / microsomal clearance, rat liver microsomes. It is filed as in vitro ADME. Conditions: 0.5 μM test substance, 0.25 mg protein/ml, pH 7.4, 37° C. Here is the method:
(§1) The metabolic stability of the compounds of the invention was determined in the following assay. The test substances were incubated in a concentration of 0.5 μM as follows: 0.5 μM test substance are preincubated together with liver microsomes from different species (from rat, human or other species) (0.25 mg of microsomal protein/ml) in 0.05 M potassium phosphate buffer of pH 7.4 in microtiter plates at 37° C. for 5 min. The reaction is started by adding NADPH (1 mg/mL). After 0, 5, 10, 15, 20 and 30 min, 50 μl aliquots are removed, and the reaction is immediately stopped and cooled with the same volume of acetonitrile. The samples are frozen until analyzed. The remaining concentration of undegraded test substance is determined by MSMS. The half-life (T½) is determined from the gradient of the signal of test substance/unit time plot, it being possible to calculate the half-life of the test substance, assuming first order kinetics, from the decrease in the concentration of the compound with time. The microsomal clearance (mCl) is calculated from mCl=ln 2/T½/(content of microsomal protein in mg/ml)×1000 [ml/min/mg] (modified from references: Di, The Society for Bimolecular Screening, 2003, 453-462; Obach, D M D, 1999 vol 27. N 11, 1350-1359).
(Liver microsomes are a subcellular fraction often used to study metabolism.)

The nature of data set [2]: Microsomal half-life / microsomal clearance, human liver microsomes. It is filed as in vitro ADME. As to conditions: 0.5 μM test substance, 0.25 mg protein/ml, pH 7.4, 37° C. How it is done: as §1
Data set [3] deals with rats. Conditions: cited from earlier work.
Data set [4] concerns rats. Conditions: cited from earlier work. This is another data set of the same source.
The test system of data set [5] is rats. Conditions: cited from earlier work. This is another data set of the same source.

`CCCc1nc(C)c2c(C)nc3scnc3n12` [Example 1, 5,6-Dimethyl-8-propyl-3-thia-1,4,7,8a-tetraaza-as-indacene]: the “Rat mCl” value in data set [1] was “+ (+: 100-220 μl min^−1 mg^−1)”. The “Human mCl” value in data set [2] was “++ (++: <100 μl min^−1 mg^−1)”.
The like results for `CCCc1nc(C)c2c(C)nc3sc(C)nc3n12` [Example 3, 2,5,6-Trimethyl-8-propyl-3-thia-1,4,7,8a-tetraaza-as-indacene] were, in that order, “∘ (∘: >220 μl min^−1 mg^−1)” and “+ (+: 100-220 μl min^−1 mg^−1)”.
The like results for `CCCc1nc(C)c2c(C)nc3sc(OC)nc3n12` [Example 5, 2-Methoxy-5,6-dimethyl-8-propyl-3-thia-1,4,7,8a-tetraaza-as-indacene] were, in that order, “∘ (∘: >220 μl min^−1 mg^−1)” and “∘ (∘: >220 μl min^−1 mg^−1)”.
The corresponding values for `Cc1nc(-c2cccc(C(N)=O)c2)n2c1c(C)nc1scnc12` [Example 8, 3-(5,6-Dimethyl-3-thia-1,4,7,8a-tetraaza-as-indacen-8-yl)-benzamide] are “++ (++: <100 μl min^−1 mg^−1)” and “++ (++: <100 μl min^−1 mg^−1)”.
In the case of `Cc1ncccc1-c1nc(C)c2c(C)nc3scnc3n12` [Example 9, 5,6-Dimethyl-8-(2-methyl-pyridin-3-yl)-3-thia-1,4,7,8a-tetraaza-as-indacene], the “Rat mCl” value in data set [1] was “++ (++: <100 μl min^−1 mg^−1)”. The “Human mCl” value in data set [2] is recorded as “++ (++: <100 μl min^−1 mg^−1)”.
`Cc1ccc(-c2nc(C)c3c(C)nc4scnc4n23)cn1` [Example 11, 5,6-Dimethyl-8-(6-methyl-pyridin-3-yl)-3-thia-1,4,7,8a-tetraaza-as-indacene]: in data set [1], the “Rat mCl” value is listed as “+ (+: 100-220 μl min^−1 mg^−1)”. The “Human mCl” value in data set [2] was “+ (+: 100-220 μl min^−1 mg^−1)”.
Consider `COc1ccc(Cc2nccc3cc(OC)c(OC)cc23)cc1OC` [Papaverine, papaverine], for which, in the data set on rats [3] (with D2 receptor antagonist haloperidol), the “effect on the cataleptic effect of haloperidol” value was “potentiated the cataleptic effect”. Further, the “catalepsy on its own” value in the data set on rats [3] (without haloperidol) was “did not cause catalepsy”. Moreover, in the data set with rats [4], the “hyperactivity induced by PCP” value is “reduced hyperactivity”. Also, the “reduction of amphetamine-induced hyperactivity” value in the data set on rats [5] is given as “insignificant”.
